Source: patent US20140227357A1, “FILL FORMULATIONS AND CAPSULES AND METHOD OF USE TO AVOID MIGRATION OF FILL INTO OR THROUGH THE SHELL” (CAPSUGEL BELGIUM NV, priority 2011, published 2014)

Test: Technical batch stability study, 2-butanol and 2-pentanone assay by gas chromatography
Assay type: physicochemical
Settings: in Formulation 4, sealed LICAPS

assay, % label claim (6 months at 25° C./60% RH in PET/Alu/PE bags): 100.3%
assay, % label claim (6 months at 40° C./75% RH in PET/Alu/PE bags): 99.8%
SMILES: CCCC(C)=O [Formulation 2-pentanone, 2-pentanone]
